This assay has as its target T1, purified human Factor XIa (Homo sapiens, UniProt P03951).
T1 construct: Determinations were made using purified human Factor XIa; purchased Sekisui Diagnostics
Kind of assay: Factor XIa Assay (hydrolysis of fluorogenic substrate Z-Gly-Pro-Arg-AFC). Format: biochemical. The settings on record: purified human Factor XIa 40 pM; Z-Gly-Pro-Arg-AFC 100 μM; 50 mM HEPES pH 7.4; read-out: Factor XIa Inhibition (IC50 (nM)). The protocol: The effectiveness of compounds of the present invention as inhibitors of Coagulation Factor XIa can be determined using a relevant purified serine protease, and an appropriate synthetic substrate. The rate of hydrolysis of the chromogenic or fluorogenic substrate by the relevant serine protease was measured both in the absence and presence of compounds of the present invention. Assays were conducted at room temperature or at 37° C. […] A decrease in the rate of fluorescence change in the presence of inhibitor is indicative of enzyme inhibition. Such methods are known to one skilled in the art. […]
Factor XIa determinations were made in 50 mM HEPES buffer at pH 7.4 containing 150 mM NaCl, 5 mM CaCl2, and 0.1% PEG 8000 (polyethylene glycol; JT Baker or Fisher Scientific). Determinations were made using purified human Factor XIa at a final concentration of 40 pM (Sekisui Diagnostics) and the synthetic substrate, Z-Gly-Pro-Arg-AFC, TFA salt (Sigma #C0980) at a concentration of 100 μM.
Times required to achieve equilibration between enzyme and inhibitor were determined in control experiments. Initial velocities of product formation in the absence (Vo) or presence of inhibitor (Vi) were measured. Assuming competitive inhibition, and that unity is negligible compared Km/[S], [I]/e, and [I]/e (where [S], [I], and e respectively represent the total concentrations, of substrate, inhibitor and enzyme), the equilibrium constant (Ki) for dissociation of the inhibitor from the enzyme can be obtained from the dependence of Vo/Vi on [I] shown in the following equation.
T1 sequence (P03951 388-625 limits assumed): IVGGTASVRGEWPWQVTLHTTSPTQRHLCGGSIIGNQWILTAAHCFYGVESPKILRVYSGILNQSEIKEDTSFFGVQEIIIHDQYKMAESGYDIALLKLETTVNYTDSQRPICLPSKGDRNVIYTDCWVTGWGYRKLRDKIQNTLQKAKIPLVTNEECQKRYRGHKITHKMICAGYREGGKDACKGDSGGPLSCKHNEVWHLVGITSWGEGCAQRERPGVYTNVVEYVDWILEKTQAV
T1 sequence (P03951 19-387 partner limits assumed): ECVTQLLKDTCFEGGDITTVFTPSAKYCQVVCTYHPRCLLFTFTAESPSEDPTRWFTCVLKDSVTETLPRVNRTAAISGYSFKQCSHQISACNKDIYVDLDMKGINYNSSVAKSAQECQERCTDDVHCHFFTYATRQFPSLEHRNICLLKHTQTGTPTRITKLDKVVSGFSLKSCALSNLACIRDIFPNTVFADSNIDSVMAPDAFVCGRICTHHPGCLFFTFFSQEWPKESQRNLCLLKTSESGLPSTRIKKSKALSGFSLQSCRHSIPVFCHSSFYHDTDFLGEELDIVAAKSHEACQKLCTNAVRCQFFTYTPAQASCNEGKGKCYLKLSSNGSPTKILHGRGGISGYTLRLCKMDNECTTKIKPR
The term IC50 denotes the concentration that inhibits the measured activity by half. For the molecule `N#Cc1ccc(-c2cnc(C3C(c4ccc(F)cc4)CC(N4CCC(N)CC4)CN3C(=O)/C=C/c3cc(Cl)ccc3-n3cnnn3)[nH]2)cc1` (stereo not shown) [Example 18, 4-{2-[4-amino-1′-{(2E)-3-[5-chloro-2-(1H-tetrazol-1-yl)phenyl]prop-2-enoyl}-5′-(4-fluorophenyl)-1,3′-bipiperidin-6′-yl]-1H-imidazol-5-yl}benzonitrile], the IC50 came to 16.5 nM.

Regarding `O=C(Nc1ccc2[nH]ncc2c1)[C@@H]1[C@H](c2ccc(F)cc2)C[C@H](N2CCNCC2)CN1C(=O)/C=C/c1cc(Cl)ccc1-n1cnnn1` [Example 31, (2S,3S,5S)-1-{(2E)-3-[5-chloro-2-(1H-tetrazol-1-yl)phenyl]prop-2-enoyl}-3-(4-fluorophenyl)-N-1H-indazol-5-yl-5-piperazin-1-ylpiperidine-2-carboxamide], the IC50 turned out to be 40.9 nM.

As to `COC(=O)Nc1ccc(-c2c[nH]c(C3C(c4ccc(F)cc4)CC(N4CCC(N)CC4)CN3C(=O)/C=C/c3cc(Cl)ccc3-n3cnnn3)n2)cc1` (single isomer, unassigned) [Example 13, Methyl (4-{2-[4-amino-1′-{(2E)-3-[5-chloro-2-(1H-tetrazol-1-yl)phenyl]prop-2-enoyl}-5′-(4-fluorophenyl)-1,3′-bipiperidin-6′-yl]-1H-imidazol-4-yl}phenyl)-carbamate], the IC50 stood at 1.7 nM.

Regarding `CC(C)C1CC(N2CCC(N)CC2)CN(C(=O)/C=C/c2cc(Cl)ccc2-n2cnnn2)C1C(=O)Nc1ccc(C(=O)O)cc1` (stereo not shown) [Example 3, 4-({[4-amino-1′-{(2E)-3-[5-chloro-2-(1H-tetrazol-1-yl)phenyl]prop-2-enoyl}-5′-(1-methylethyl)-1,3′-bipiperidin-6′-yl]carbonyl}amino)benzoic acid], the IC50 stood at 27.2 nM.

For `O=C(O)c1ccc(NC(=O)[C@H]2[C@@H](c3ccccc3)C[C@@H](OC3CCNCC3)CN2C(=O)/C=C/c2cc(Cl)ccc2-n2cnnn2)cc1` [Example 10, 4-((2R,3R,5R)-1-((E)-3-(5-chloro-2-(1H-tetrazol-1-yl)phenyl)acryloyl)-3-phenyl-5-(piperidin-4-yloxy)piperidine-2-carboxamido)benzoic acid], the IC50 amounted to 306 nM.

In the case of `O=C(O)c1ccc(NC(=O)C2C(c3ccccc3)CC(N3CCNCC3)CN2C(=O)/C=C/c2cc(Cl)ccc2-n2cnnn2)cc1` (stereo not shown) [Example 2, 4-{[(1-{(2E)-3-[5-chloro-2-(1H-tetrazol-1-yl)phenyl]prop-2-enoyl}-3-phenyl-5-piperazin-1-ylpiperidin-2-yl)carbonyl]amino}benzoic acid], the IC50 stood at 11.4 nM.

As to `O=C(O)c1ccc(NC(=O)[C@@H]2[C@H](C3CCCCC3)C[C@H](OC3CCNCC3)CN2C(=O)/C=C/c2cc(Cl)ccc2-n2cnnn2)cc1` (racemic) [Example 11], the IC50 worked out at 6.1 nM.
